From PMC10066365, “Nemacol is a small molecule inhibitor of C. elegans vesicular acetylcholine transporter with anthelmintic potential” (Nature Communications, 2023)
Where “and” joins values, the source holds several entries; their conditions need not be identical. Equal entries are not always repeated. Where two headings read alike, the source gives them in different places.

How the values were obtained:
[1] = system: Dirofilaria immitis microfilariae; test: Dirofilaria immitis microfilariae immobility assay (DiroImager, 72 h); details: Dirofilaria immitis microfilariae
Procedure: We conducted experiments with the Missouri isolate of Dirofilaria immitis in two labs. In the first set of experiments, shown as part of Fig. 3c, D. immitis microfilariae and larval stage 3 (L3) worms were assayed in the laboratories of Bayer Animal Health GmbH (Monheim, Germany). For microfilariae immobility assays, approximately 250 freshly purified microfilariae were cultured in single wells of a 96-well microtiter plate containing supplemented RPMI 1640 medium[68],[69]. […] Microfilariae exposed to medium substituted with 1% DMSO were used as negative controls. Motility of microfilariae was evaluated after 72 h of drug exposure using an image-based approach—DiroImager, developed by Bayer Technology Services. As described in detail in refs. [68],[69], the DiroImager is an automated high-throughput platform that allows for high-resolution optical imaging of an entire 96-well microtiter plate.

[2] = system: Dirofilaria immitis L3/L4; test: Dirofilaria immitis L3/L4 motility assay (DiroImager, 72 h); details: Dirofilaria immitis L4
C. elegans = C. elegans motor phenotype scoring on solid media (Punc/jerky-unc, coiled, paralyzed), wild-type young adults; assay type: in vivo, Caenorhabditis elegans; details: for any phene, mean % fraction of young adults exhibiting any phenotype (coiled, jerky-Unc or paralyzed) / atypical locomotion (number of animals) / coiled (number of animals) / no phene (number of animals) / paralyzed (number of animals): one hour; for any phene, mean % fraction of young adults exhibiting any phenotype (coiled, jerky-Unc or paralyzed): mean of three biological replicates; for atypical locomotion (number of animals) / coiled (number of animals) / no phene (number of animals) / paralyzed (number of animals): young adults, 20 animals per trial, single replicate counts; for EC50: Caenorhabditis elegans, read-out: C. elegans - motor disruption EC50
Pristionchus pacificus = Pristionchus pacificus motor disruption dose-response on solid media, 1 h; details: for mean % any phene (coiled, jerky-Unc or paralyzed): Pristionchus pacificus young adults, mean of three biological replicates; for EC50: Pristionchus pacificus, 1 h, read-out: P. pacificus motor disruption EC50
[3] = conc 3.75, observed at one hour
[4] = any motor phenotype after 1 h on solid media, ± 95% CI

## CCN1CCN(c2ccc([N+](=O)[O-])cc2)CC1 [Nemacol-8]
[1]; 0.016 µM
  % effect (motility), DIROIM MF: 0%
[1]; 0.08 µM
  % effect (motility), DIROIM MF: 0%
[1]; 0.4 µM
  % effect (motility), DIROIM MF: 0%
[1]; 2 µM
  % effect (motility), DIROIM MF: 0%
[1]; 10 µM
  % effect (motility), DIROIM MF: 0%
[2]; 2 µM
  % effect (motility), DIROIM L4: 0%
[2]; 10 µM
  % effect (motility), DIROIM L4: 5%
[2]; 50 µM
  % effect (motility), DIROIM L4: 5%
C. elegans; 3.75uM
  any phene, mean % fraction of young adults exhibiting any phenotype (coiled, jerky-Unc or paralyzed): 0%
  atypical locomotion (number of animals): 0
  coiled (number of animals): 0
  no phene (number of animals): 20
  paralyzed (number of animals): 0
C. elegans; 15uM
  any phene, mean % fraction of young adults exhibiting any phenotype (coiled, jerky-Unc or paralyzed): 0%
  atypical locomotion (number of animals): 0
  coiled (number of animals): 0
  no phene (number of animals): 20
  paralyzed (number of animals): 0
C. elegans; 60uM
  any phene, mean % fraction of young adults exhibiting any phenotype (coiled, jerky-Unc or paralyzed): 28.5965%
  atypical locomotion (number of animals): 4 and 3 and 1 and 5 and 8
  coiled (number of animals): 0 and 2 and 1
  no phene (number of animals): 16 and 17 and 13 and 15 and 11
  paralyzed (number of animals): 0 and 3 and 2 and 1
C. elegans; 1 h
  EC50: > 60 µM
Pristionchus pacificus; [3]
  mean % any phene (coiled, jerky-Unc or paralyzed): 0%
Pristionchus pacificus; conc 15, observed at one hour
  mean % any phene (coiled, jerky-Unc or paralyzed): 48.3333%
Pristionchus pacificus; conc 60, observed at one hour
  mean % any phene (coiled, jerky-Unc or paralyzed): 81.6667%
Pristionchus pacificus
  EC50: 17.8 ± 3.7 µM

## Fc1ccc(N2CCN(CC3CCCCC3)CC2)cc1 [Nemacol-9]
[1]; 0.016 µM
  % effect (motility), DIROIM MF: 0%
[1]; 0.08 µM
  % effect (motility), DIROIM MF: 0%
[1]; 0.4 µM
  % effect (motility), DIROIM MF: 0%
[1]; 2 µM
  % effect (motility), DIROIM MF: 0%
[1]; 10 µM
  % effect (motility), DIROIM MF: 0%
[2]; 2 µM
  % effect (motility), DIROIM L4: 5%
[2]; 10 µM
  % effect (motility), DIROIM L4: 5%
[2]; 50 µM
  % effect (motility), DIROIM L4: 10%
C. elegans; 3.75uM
  any phene, mean % fraction of young adults exhibiting any phenotype (coiled, jerky-Unc or paralyzed): 21.6667%
  atypical locomotion (number of animals): 0 and 14 and 12
  coiled (number of animals): 0
  no phene (number of animals): 20 and 6 and 8
  paralyzed (number of animals): 0
C. elegans; 15uM
  any phene, mean % fraction of young adults exhibiting any phenotype (coiled, jerky-Unc or paralyzed): 44.1667%
  atypical locomotion (number of animals): 5 and 3 and 1 and 2 and 16 and 11
  coiled (number of animals): 2 and 0 and 4 and 7
  no phene (number of animals): 13 and 17 and 19 and 18 and 0
  paralyzed (number of animals): 0 and 2
C. elegans; 60uM
  any phene, mean % fraction of young adults exhibiting any phenotype (coiled, jerky-Unc or paralyzed): 95%
  atypical locomotion (number of animals): 11 and 13 and 12 and 14 and 3 and 1
  coiled (number of animals): 6 and 5 and 4 and 8 and 13
  no phene (number of animals): 0 and 4 and 2
  paralyzed (number of animals): 3 and 2 and 0 and 9 and 6
C. elegans; [4]
  EC50: 14.4 ± 13.3 µM
Pristionchus pacificus; [3]
  mean % any phene (coiled, jerky-Unc or paralyzed): 1.667%
Pristionchus pacificus; conc 15, observed at one hour
  mean % any phene (coiled, jerky-Unc or paralyzed): 10%
Pristionchus pacificus; conc 60, observed at one hour
  mean % any phene (coiled, jerky-Unc or paralyzed): 100%
Pristionchus pacificus
  EC50: 20 µM

## Clc1ccc(N2CCN(CC3CCCCC3)CC2)cc1 [Nemacol-10]
[1]; 0.016 µM
  % effect (motility), DIROIM MF: 0%
[1]; 0.08 µM
  % effect (motility), DIROIM MF: 0%
[1]; 0.4 µM
  % effect (motility), DIROIM MF: 0%
[1]; 2 µM
  % effect (motility), DIROIM MF: 0%
[1]; 10 µM
  % effect (motility), DIROIM MF: 0%
[2]; 2 µM
  % effect (motility), DIROIM L4: 0%
[2]; 10 µM
  % effect (motility), DIROIM L4: 0%
[2]; 50 µM
  % effect (motility), DIROIM L4: 25%
C. elegans; 3.75uM
  any phene, mean % fraction of young adults exhibiting any phenotype (coiled, jerky-Unc or paralyzed): 0%
  atypical locomotion (number of animals): 0
  coiled (number of animals): 0
  no phene (number of animals): 20
  paralyzed (number of animals): 0
C. elegans; 15uM
  any phene, mean % fraction of young adults exhibiting any phenotype (coiled, jerky-Unc or paralyzed): 27.5%
  atypical locomotion (number of animals): 5 and 4 and 3 and 1 and 2
  coiled (number of animals): 1 and 2 and 0 and 3
  no phene (number of animals): 14 and 13 and 18
  paralyzed (number of animals): 0 and 1 and 3
C. elegans; 60uM
  any phene, mean % fraction of young adults exhibiting any phenotype (coiled, jerky-Unc or paralyzed): 55.6944%
  atypical locomotion (number of animals): 8 and 14 and 12 and 11 and 6 and 7
  coiled (number of animals): 1 and 0 and 2
  no phene (number of animals): 11 and 4 and 7 and 8 and 12 and 13
  paralyzed (number of animals): 4 and 2 and 0
C. elegans; [4]
  EC50: 45.7 ± 15.7 µM
Pristionchus pacificus; [3]
  mean % any phene (coiled, jerky-Unc or paralyzed): 0.8333%
Pristionchus pacificus; conc 15, observed at one hour
  mean % any phene (coiled, jerky-Unc or paralyzed): 3.333%
Pristionchus pacificus; conc 60, observed at one hour
  mean % any phene (coiled, jerky-Unc or paralyzed): 6.667%
Pristionchus pacificus
  EC50: > 60 µM

## CCN1CCN(CC2CCCCC2)CC1 [Nemacol-11]
[1]; 0.016 µM
  % effect (motility), DIROIM MF: 0%
[1]; 0.08 µM
  % effect (motility), DIROIM MF: 0%
[1]; 0.4 µM
  % effect (motility), DIROIM MF: 0%
[1]; 2 µM
  % effect (motility), DIROIM MF: 0%
[1]; 10 µM
  % effect (motility), DIROIM MF: 0%
[2]; 2 µM
  % effect (motility), DIROIM L4: 10%
[2]; 10 µM
  % effect (motility), DIROIM L4: 5%
[2]; 50 µM
  % effect (motility), DIROIM L4: 0%
C. elegans; 3.75uM
  any phene, mean % fraction of young adults exhibiting any phenotype (coiled, jerky-Unc or paralyzed): 3.333%
  atypical locomotion (number of animals): 0 and 3 and 1
  coiled (number of animals): 0
  no phene (number of animals): 20 and 17 and 19
  paralyzed (number of animals): 0
C. elegans; 15uM
  any phene, mean % fraction of young adults exhibiting any phenotype (coiled, jerky-Unc or paralyzed): 6.667%
  atypical locomotion (number of animals): 0 and 5 and 3
  coiled (number of animals): 0
  no phene (number of animals): 20 and 15 and 17
  paralyzed (number of animals): 0
C. elegans; 60uM
  any phene, mean % fraction of young adults exhibiting any phenotype (coiled, jerky-Unc or paralyzed): 19.1667%
  atypical locomotion (number of animals): 1 and 0 and 13 and 9
  coiled (number of animals): 0
  no phene (number of animals): 19 and 20 and 7 and 11
  paralyzed (number of animals): 0
C. elegans; [4]
  EC50: > 60 µM
Pristionchus pacificus; [3]
  mean % any phene (coiled, jerky-Unc or paralyzed): 0%
Pristionchus pacificus; conc 15, observed at one hour
  mean % any phene (coiled, jerky-Unc or paralyzed): 0%
Pristionchus pacificus; conc 60, observed at one hour
  mean % any phene (coiled, jerky-Unc or paralyzed): 3.333%
Pristionchus pacificus
  EC50: > 60 µM

## c1ccc(N2CCN(CC3CCCCC3)CC2)cc1 [Nemacol-12]
[1]; 0.016 µM
  % effect (motility), DIROIM MF: 0%
[1]; 0.08 µM
  % effect (motility), DIROIM MF: 0%
[1]; 0.4 µM
  % effect (motility), DIROIM MF: 0%
[1]; 2 µM
  % effect (motility), DIROIM MF: 0%
[1]; 10 µM
  % effect (motility), DIROIM MF: 0%
[2]; 2 µM
  % effect (motility), DIROIM L4: 6%
[2]; 10 µM
  % effect (motility), DIROIM L4: 0%
[2]; 50 µM
  % effect (motility), DIROIM L4: 5%
C. elegans; 3.75uM
  any phene, mean % fraction of young adults exhibiting any phenotype (coiled, jerky-Unc or paralyzed): 16.1842%
  atypical locomotion (number of animals): 0 and 7 and 11
  coiled (number of animals): 0 and 1
  no phene (number of animals): 20 and 11 and 9
  paralyzed (number of animals): 0
C. elegans; 15uM
  any phene, mean % fraction of young adults exhibiting any phenotype (coiled, jerky-Unc or paralyzed): 39.1667%
  atypical locomotion (number of animals): 4 and 2 and 0 and 1 and 17 and 10
  coiled (number of animals): 0 and 3 and 8
  no phene (number of animals): 16 and 18 and 20 and 19 and 0
  paralyzed (number of animals): 0 and 2
C. elegans; 60uM
  any phene, mean % fraction of young adults exhibiting any phenotype (coiled, jerky-Unc or paralyzed): 84.1667%
  atypical locomotion (number of animals): 11 and 14 and 7 and 10 and 2 and 1
  coiled (number of animals): 3 and 4 and 5 and 6 and 14 and 19
  no phene (number of animals): 6 and 2 and 7 and 4 and 0
  paralyzed (number of animals): 0 and 1 and 4
C. elegans; 1 h
  EC50: 18.8 ± 17.5 µM
Pristionchus pacificus; [3]
  mean % any phene (coiled, jerky-Unc or paralyzed): 0%
Pristionchus pacificus; conc 15, observed at one hour
  mean % any phene (coiled, jerky-Unc or paralyzed): 38.3333%
Pristionchus pacificus; conc 60, observed at one hour
  mean % any phene (coiled, jerky-Unc or paralyzed): 98.3333%
Pristionchus pacificus
  EC50: 17.3 ± 6.3 µM
